In test [1] the test system is NF-κB gene targets in cDCs. Briefly: RNA-seq and gene set enrichment in cDCs. It is filed as cell-based, mice. The protocol: FIG. 14B is a line graph of the enrichment of NF-κB target genes in DMSO or apilimod-treated, 3 hours, cDCs after 6 days of culture.
FIG. 14C is a line graph of the enrichment of NF-κB target genes in DMSO or apilimod-treated, 8 hours, cDCs after 6 days of culture.
FIG. 14H is a scatter plot of differentially expressed genes in apilimod versus DMSO-treated, 8 hours, cDCs after 6 days of culture.
FIG. 21C is a line graph of MSigDB Hallmark “TNF_SIGNALING_VIA_NFκB” in apilimod vs. DMSO-treated, 3 hours, cDCs after 6 days of culture.
FIG. 21D is a line graph of MSigDB Hallmark “TNF_SIGNALING_VIA_NFκB” in apilimod vs. DMSO-treated, 8 hours, cDCs after 6 days of culture.
The Eukaryote Total RNA Nano kit (Agilent Technologies; catalog #: 5067-1511) was used to check the quality of RNAs on an Agilent bioanalyzer. A total of 800 ng RNA was then used for library preparation with the KAPA RNA Hyper+RiboErase HMR kit (Roche Diagnostics; Catalog #: 08098140702), following the instructions from the user manual. Briefly, the ribosomal RNA was removed by enzymatic digestion, and then the RNA was fragmented to around 200-300 bp with heat in fragmentation buffer. Synthesis of cDNA was conducted with reverse transcriptase and random primer, and then the second strand was synthesized to generate double-stranded cDNA. Following the repair of the DNA ends, NEB adapter was ligated, and the DNA are amplified with the KAPA HiFi HotStart mix and NEB dual barcode. Quality of the library was checked using the bioanalyzer with the Agilent DNA 1000 Kit (Agilent Technologies; catalog #: 5067-1504), and the sequencing was performed using NovaSeq 6000. The RNA-sequencing data was analyzed with packages limma and edgeR See, e.g., Ritchie, M. E. et al., Nucleic Acids Res. 2015; 43(7):47; Phipson, B. et al., Ann. Appl. Stat. 2016; 10(2):946-963; Robinson, M. D. et al., Bioinformatics 2010; 26(1):139-40. […] The analyzed hallmark pathways were collected from the Molecular Signatures Database See, e.g., Subramanian, A. et al., Proc. Natl. Acad. Sci. USA 2005; 102(43):15545-15550; Liberzon, A. et al., Cell Syst. […]

In another test the test system is IL-12 in cDCs. The test is described as follows: Il12b RT-qPCR and IL-12 ELISA in cDCs. Format: cell-based, mice. The protocol:
FIG. 21E is a bar graph comparison of Il12b expression fold change by RT-qPCR in apilimod vs. DMSO-treated, 3 or 12 hours, cDCs after 6 days of culture.
FIG. 21F is a bar graph comparison of IL-12p40 protein levels by ELISA in media from apilimod vs. DMSO-treated, 12 hours, cDCs after 6 days of culture.
FIG. 21G is a bar graph Supp. 5 g Comparison of IL-12p70 protein levels by ELISA in media from apilimod vs. DMSO-treated, 24 hours, cDCs after 6 days of culture.

Test [2] relates to tumor infiltrating DCs in B16F10 tumors. Briefly: Tumor infiltrating DCs in B16F10 tumors of PIKfyve KO or WT mice. Format: in vivo. As to conditions: for percentage of cDC1s: 30 mg/kg daily. The method, then:
FIG. 15E is a box and whisker plot of the XCR1 median fluorescent intensity by % cDC1 subset in B16F10 tumor model treated with vehicle or apilimod, 30 mg/kg daily.
FIG. 15F is a series of three box and whisker plot of the XCR1 median fluorescent intensity by all DCs, cDC1 or cDC2 subset in PIKfyve KO mice or WT mice treated with vehicle or apilimod, 30 mg/kg daily.
FIG. 23F is a box and whisker plot of the % cDC2 of all DC cells in PIKfyve KO mice or WT mice treated with vehicle or apilimod, 30 mg/kg daily.
FIG. 23G is a series of three box and whisker plots of the SIRP1α median fluorescent intensity by all DC, cDC1 or cDC2 subset in PIKfyve KO mice or WT mice treated with vehicle or apilimod, 30 mg/kg daily.

In a further test the test system is subcutaneous MC38 tumors. Briefly: Subcutaneous MC38 tumor model. Format: in vivo, mice. The protocol:
FIG. 16A is a line graph of the subcutaneous tumor volume of MC38 tumors in mice treated with vehicle or apilimod, 30 mg/kg×5 days/week.
FIG. 16B is a series of two scatter plots of the percent IFNγ^+ of CD8^+ T cells in vehicle or apilimod-treated MC38 tumors.
FIG. 16C is a line graph of the subcutaneous tumor volume of MC38 tumors in mice treated with vehicle versus apilimod, 30 mg/kg×5 days/week, in wild-type or Batf3^−/− mice.
FIG. 26A is a bar graph of the percent IFNγ^+ of CD8^+ T cells in vehicle or apilimod-treated, 30 mg/kg×5 days/week MC38 tumors.
FIG. 26B is a line graph of the subcutaneous tumor volume of MC38 tumors treated with vehicle versus apilimod, 30 mg/kg×5 days/week, in NSG™ mice.
FIG. 26C is a line graph of the subcutaneous tumor volume of MC38 tumors in mice treated with vehicle versus apilimod, 30 mg/kg×5 days/week, and additionally treated with IgG2a or αIL-12p40 blocking antibody.
FIG. 26D is a line graph of the subcutaneous tumor volume of MC38 tumors in mice treated with vehicle versus apilimod, 30 mg/kg×5 days/week, and additionally treated with IgG1 or αIFNγ blocking antibody.

Regarding `Cc1cccc(/C=N/Nc2cc(N3CCOCC3)nc(OCCc3ccccn3)n2)c1` [apilimod, N-[(E)-(3-methylphenyl)methylideneamino]-6-morpholin-4-yl-2-(2-pyridin-2-ylethoxy)pyrimidin-4-amine], in test [1] (3 and 8 hours, vs DMSO), the “enrichment of TNF_SIGNALING_VIA_NFκB gene set” value was “positive enrichment”. In test [1] (8 hours, vs DMSO), the Sqstm1 expression entry is on record as “most significantly upregulated gene”. Further, the “enrichment of direct NF-κB gene targets” value in test [1] (early time points) is “positively enriched”. Further, in the test with IL-12 in cDCs (ELISA), the “secretion of IL-12p40” value is “increased” and the “secretion of IL-12p70” value is given as “increased”. In the test on IL-12 in cDCs (RT-qPCR), the Il12b transcripts result was “increased”. In addition, in test [2] (KO mice), the “percentage of cDC1s” value is “no additional increase”. In addition, the “total surface XCR1 expression, differences between groups compared with cDC1 percentage” value in test [2] (WT and KO mice) is “the same”. Further, the “percentage of cDC1s” value in test [2] (WT mice) is given as “increased”. The “percentage of cDC2s or total surface SIRP1α expression” value in test [2] (between any groups) was “no changes”. Besides, the “efficacy in Batf3−/− mice” value with subcutaneous MC38 tumors (Batf3−/− vs WT mice) is on record as “loss of apilimod efficacy”. In addition, in the test with subcutaneous MC38 tumors (WT mice), the “percentage of intratumoral IFNγ+CD8+ T cells” value is “increased”. The MC38 tumor growth entry in the test with subcutaneous MC38 tumors (WT mice, 30 mg/kg x 5 days/week, vs vehicle) is given as “reduced”. Also, in the test with subcutaneous MC38 tumors (immune-deficient NSG mice), the “efficacy in NSG mice” value is “lost”. Further, in the test on subcutaneous MC38 tumors (vs isotype control), the “efficacy with neutralizing antibody against IFNγ” value was “reduced” and the “efficacy with neutralizing antibody against IL-12” value is given as “reduced”.

(Values after patent US20250144107A1, “USE OF A PIKFYVE INHIBITOR IN COMBINATION WITH IMMUNOTHERAPY” (The Regents of the University of Michigan, priority 2023, published 2025).)
